{
  "source": "patent US7479387B2",
  "about": "“Compositions and methods for the synthesis and subsequent modification of uridine-5′-diphosphosulfoquinovose (UDP-SQ)” (Michigan State University, priority 2000, dated 2009)",
  "origin": "cited, not measured here",
  "key": {"tumor promotion": {"tested_on": "tumor promotion", "settings": "background statement, Shirahashi et al. 1993"}, "[1]": {"target": "T1, Human Immunodeficiency Virus Reverse Transcriptase 1 (HIV-RT1) (Human immunodeficiency virus type 1 group M subtype B, UniProt P03366)", "T1 construct": "Human Immunodeficiency Virus Reverse Transcriptase 1 (HIV-RT1)", "settings": "background statement, Ohta et al. 1998"}, "[2]": {"tested_on": "mammalian DNA polymerases", "settings": "background statement, Ohta et al. 1998"}},
  "data": [
    {"substance": "6-sulfo-α-D-quinovosyl diacyglycerol [SQDG]", "values": [
      {"measurement": "anti-tumor promoting properties", "setting": "tumor promotion", "result": "anti-tumor promoting properties"},
      {"measurement": "inhibition of HIV-RT1", "setting": "[1]", "result": "potent inhibitor"},
      {"measurement": "inhibition of several mammalian DNA polymerases", "setting": "[2]", "result": "potent inhibitor"}
    ]}
  ]
}
